Experimental data: patent publication US20250345459A1, “COMPOUND OR SALT THEREOF, LIPID COMPOSITION, PHARMACEUTICAL COMPOSITION, AND DELIVERY CARRIER” (FUJIFILM Corporation, priority 2023, published 2025)

Experiments:
[1] = Particle size of EPO mRNA-encapsulating lipid nanoparticles; type: physicochemical; settings: mixed solution PBS
Protocol: (§1) The compounds described in Table 1, the neutral lipid, cholesterol (product name: Cholesterol HP; NIPPON FINE CHEMICAL CO., LTD.), and 1,2-dimyristoyl-rac-glycero-3-(methylpolyoxyethylene 2000) (hereinafter, called DMG-PEG2000) (product name: SUNBRIGHT® GM-020; NOF corporation) were dissolved in ethanol at a molar ratio of ionized lipid:neutral lipid:cholesterol:DMG-PEG2000=50:10:38.5:1.5 mol % such that the total lipid concentration was 12.5 mmol/L, to obtain an oil phase.
(§2) As the neutral lipid, 1,2-distearoyl-sn-glycero-3-phosphocholine (product name: COATSOME® MC-8080; NOF corporation) (hereinafter, DSPC), or L-α-dioleoylphosphatidylethanolamine (hereinafter, DOPE) (product name: COATSOME® MC-8181; NOF corporation) was used.
(§3) EPO mRNA (product name: CleanCap EPO mRNA (5 moU); TriLink) was diluted with 50 mmol/L citrate buffer having a pH 4.0 such that the weight ratio of total lipid concentration to mRNA concentration is about 20:1 to 64:1, thereby obtaining a water phase. Then, the water phase and the oil phase were mixed together using NanoAssemblr (Precision NanoSystems) such that the volume ratio of water phase:oil phase was 3:1. The mixed solution was diluted 2-fold with any of phosphate buffered physiological saline (PBS), water, or a 20 mmol/L Tris buffer solution (pH 7.4) to obtain a dispersion liquid of mRNA lipid nanoparticles. The dispersion liquid was dialyzed with 20 mmol/L Tris buffer solution (pH 7.4) containing 8% sucrose using a dialysis cassette (Slide-A-Lyzer G2, MWCO: 10 kD, Thermo Fisher Scientific) to remove ethanol, thereby obtaining EPO mRNA-encapsulating lipid nanoparticles.
The particle size of the mRNA-encapsulating lipid nanoparticles was measured by 5-fold diluting the dispersion liquid of lipid nanoparticle with phosphate buffered physiological saline (PBS) using a particle size measurement device NanoSaqla (Otsuka Electronics Co., Ltd.).

ICR mice = assay: EPO protein expression in mice after intravenous EPO mRNA lipid nanoparticles; type: in vivo; settings: mRNA 0.1 mg/kg, plasma 6 hours after administration
Protocol: as §1, §2, §3
The dispersion liquid of mRNA lipid nanoparticles prepared in above <Preparation of EPO mRNA-encapsulating lipid nanoparticles> was intravenously administered to ICR mice at a mRNA dosage of 0.1 mg/kg. 6 hours after the administration, blood was collected from the caudal vena cava, thereby obtaining plasma. The human EPO […] was quantified by using the obtained blood plasma and Erythropoietin (EPO) Human Elisa Kit (Abcam.plc). The quantitative value is described as a relative amount of EPO protein in a case where Comparative Example 1 is 1.

EPO mRNA = assay: mRNA encapsulation rate of mRNA lipid nanoparticles; type: physicochemical; settings: mixed solution PBS
Protocol: as §1, §2, §3
EPO mRNA was diluted with MilliQ water to prepare a diluted sample in 2-fold dilution series from 100 µg/mL to […], and a calibration curve solution was prepared. 50 μL of the calibration curve solution or the mRNA lipid nanoparticles was mixed with 450 μL of methanol to prepare a measurement solution.
The absorbance of each measurement solution at 260 nm and 330 nm was measured using a UV plate reader (Multiskan Go, Thermo Fisher Scientific), the absorbance at 330 nm was subtracted from the absorbance at 260 nm, and the result was defined as the absorbance of each measurement solution. The total […] nucleic acid concentration was calculated from the calibration curve using the absorbance of each sample measurement solution.
The concentration of the outer water phase nucleic acid was quantified by a standard addition method using a QuanT-iT RiboGreen RNA Assay Kit (Thermo Fisher Scientific). First, a 20× TE buffer included in the above kit was diluted with water, thereby obtaining a 1×TE buffer. TE represents Tris/EDTA (ethylenediaminetetraacetic acid). EPO mRNA was diluted with a TE buffer such that the final concentration was 0 to 400 ng/mL to prepare a nucleic acid diluted series. 10 μL of mRNA lipid nanoparticles diluted 5-fold with TE buffer and 90 µL of a nucleic acid dilution series were mixed in a 96-well plate, 100 μL of a Ribogreen reagent diluted 200-fold with TE buffer was added to each well, and then fluorescence (excitation wavelength: 485 nm, fluorescence wavelength: 535 nm) was measured using a fluorescence plate reader (Infinite 200 Pro M nano+, TECAN). From the obtained results, the outer water phase nucleic acid concentration of each measurement solution was calculated according to the standard addition method.
By using the quantification results of the total mRNA concentration and the mRNA concentration in the outer water phase that were obtained through the above steps, the mRNA encapsulation rate of the mRNA lipid nanoparticles was calculated according to the following Equation. […]

[2] = LNP with neutral lipid DSPC, Lipid/Nucleic acid (wt/wt) 20
[3] = neutral lipid DSPC, Lipid/Nucleic acid (wt/wt) 20, Comparative Example 1 is 1
[4] = LNP with neutral lipid DOPE, Lipid/Nucleic acid (wt/wt) 64

SMILES | Particle size (nm) [1, 2] [nm] | Relative amount of EPO protein (to Comparative Example 1) (ICR mice; [3]) | Nucleic acid encapsulation rate (%) (EPO mRNA; [2]) | Particle size (nm) [1, 4] [nm] | Relative amount of EPO protein (to Comparative Example 1) (ICR mice; neutral lipid DOPE, Lipid/Nucleic acid (wt/wt) 64, Comparative Example 1 is 1) | Nucleic acid encapsulation rate (%) (EPO mRNA; [4])
CCCCCCC(CCCCCC)COC(=O)CCCCCN(CCCC)C(=O)OCCN(CCOC(=O)N(CCCC)CCCCCC(=O)OCC(CCCCCC)CCCCCC)CCN(CC)CC [Example 47, Bis(2-hexyloctyl) 7,17-dibutyl-12-(2-(diethylamino)ethyl)-8,16-dioxo-9,15-dioxa-7,12,17-triazatricosanedioate] | 114 | 1.46 | 91 | – | – | –
CCCCCCC(CCCCCC)COC(=O)CCCCN(CCCCCC)C(=O)OCCN(CCOC(=O)N(CCCCCC)CCCCC(=O)OCC(CCCCCC)CCCCCC)CCN(CC)CC [Example 5, Bis(2-hexyloctyl) 11-(2-(diethylamino)ethyl)-6,16-dihexyl-7,15-dioxo-8,14-dioxa-6,11,16-triazahenicosanedioate] | 88 | 9.14 | 93 | 106.8 | 11.74 | 99
CCCCCC(CCCCC)COC(=O)CCCCCN(CCCCC)C(=O)OCCN(CCCN(CC)CC)CCOC(=O)N(CCCCC)CCCCCC(=O)OCC(CCCCC)CCCCC [Example 49, bis(2-pentylheptyl) 12-(3-(diethylamino)propyl)-8,16-dioxo-7,17-dipentyl-9,15-dioxa-7,12,17-triazatricosanedioate] | 126 | 1.12 | 94 | – | – | –
CCCCCC(CCCCC)COC(=O)CCCCN(C(=O)OCCN(CCCN(CC)CC)CCOC(=O)N(CCCCC(=O)OCC(CCCCC)CCCCC)C(C)C)C(C)C [Example 14, Bis(2-pentylheptyl) 11-(3-(diethylamino)propyl)-6,16-diisopropyl-7,15-dioxo-8,14-dioxa-6,11,16-triazahenicosanedioate] | 185 | – | 97 | – | – | –
CCCCCC(CCCCC)COC(=O)CCCCN(CCCC)C(=O)OCCN(CCOC(=O)N(CCCC)CCCCC(=O)OCC(CCCCC)CCCCC)CCN(CC)CC [Example 21, Bis(2-pentylheptyl) 6,16-dibutyl-11-(2-(diethylamino)ethyl)-7,15-dioxo-8,14-dioxa-6,11,16-triazahenicosanedioate] | 230 | – | 64 | – | – | –
CCCCCC(CCCCC)COC(=O)CCN(CCCC)C(=O)OCCN(CCCN(CC)CC)CCOC(=O)N(CCCC)CCC(=O)OCC(CCCCC)CCCCC [Example 7, Bis(2-pentylheptyl) 4,14-dibutyl-9-(3-(diethylamino)propyl)-5,13-dioxo-6,12-dioxa-4,9,14-triazaheptadecanedioate] | 215 | – | 73 | – | – | –
CCCCCCCCN(CCCCCC(=O)OCC(CCCCC)CCCCC)C(=O)OCCN(CCCN(CC)CC)CCOC(=O)N(CCCCCCCC)CCCCCC(=O)OCC(CCCCC)CCCCC [Example 51, Bis(2-pentylheptyl) 12-(3-(diethylamino)propyl)-7,17-dioctyl-8,16-dioxo-9,15-dioxa-7,12,17-triazatricosanedioate] | 93 | 2.88 | 94 | – | – | –
CCCCCC(CCCCC)COC(=O)CCN(CCCC)C(=O)OCCN(CCOC(=O)N(CCCC)CCC(=O)OCC(CCCCC)CCCCC)CCN(CC)CC [Example 6, Bis(2-pentylheptyl) 4,14-dibutyl-9-(2-(diethylamino)ethyl)-5,13-dioxo-6,12-dioxa-4,9,14-triazaheptadecanedioate] | 183 | – | 58 | – | – | –
CCCCCCCCCCCCCOC(=O)CN(CC(=O)OCCCCCCCCCCCCC)C(=O)OCCN(CCOC(=O)N(CC(=O)OCCCCCCCCCCCCC)CC(=O)OCCCCCCCCCCCCC)CCN(CC)CC [Example 34, Ditridecyl 8-(2-(diethylamino)ethyl)-4,12-dioxo-3,13-bis(2-oxo-2-(tridecyloxy)ethyl)-5,11-dioxa-3,8,13-triazapentadecanedioate] | 332 | – | 33 | – | – | –
CCCCCC(CCCCC)COC(=O)CCCCN(CCC)C(=O)OCCN(CCOC(=O)N(CCC)CCCCC(=O)OCC(CCCCC)CCCCC)CCN(CC)CC [Example 15, Bis(2-pentylheptyl) 11-(2-(diethylamino)ethyl)-7,15-dioxo-6,16-dipropyl-8,14-dioxa-6,11,16-triazahenicosanedioate] | 238 | – | 79 | – | – | –
CCCCCCCCCC(=O)OCCN(CCOC(=O)CCCCCCCCC)C(=O)OCCN(CCOC(=O)N(CCOC(=O)CCCCCCCCC)CCOC(=O)CCCCCCCCC)CCN(CC)CC [Example 12, 2-(2-(2-(bis(2-decanoyloxyethyl)carbamoyloxy)ethyl-(2-(diethylamino)ethyl)amino)ethoxycarbonyl-(2-decanoyloxyethyl)amino)ethyl decanoate] | 169 | – | 62 | – | – | –
CCCCCC(CCCCC)COC(=O)CCCCN(CCC)C(=O)OCCN(CCCN(CC)CC)CCOC(=O)N(CCC)CCCCC(=O)OCC(CCCCC)CCCCC [Example 16, Bis(2-pentylheptyl) 11-(3-(diethylamino)propyl)-7,15-dioxo-6,16-dipropyl-8,14-dioxa-6,11,16-triazahenicosanedioate] | 187 | – | 93 | – | – | –
CCCCCC(CCCCC)COC(=O)CCCCN(CC(C)C)C(=O)OCCN(CCOC(=O)N(CCCCC(=O)OCC(CCCCC)CCCCC)CC(C)C)CCN(CC)CC [Example 18, Bis(2-pentylheptyl) 11-(2-(diethylamino)ethyl)-6,16-diisobutyl-7,15-dioxo-8,14-dioxa-6,11,16-triazahenicosanedioate] | 224 | – | 43 | – | – | –
CCCCCC(CCCCC)COC(=O)CCCCN(C(=O)OCCN(CCOC(=O)N(CCCCC(=O)OCC(CCCCC)CCCCC)C(C)C)CCN(CC)CC)C(C)C [Example 13, Bis(2-pentylheptyl) 11-(2-(diethylamino)ethyl)-6,16-diisopropyl-7,15-dioxo-8,14-dioxa-6,11,16-triazahenicosanedioate] | 188 | – | 88 | – | – | –
CCCCCCCCCCCCOC(=O)CN(CC(=O)OCCCCCCCCCCCC)C(=O)OCCN(CCOC(=O)N(CC(=O)OCCCCCCCCCCCC)CC(=O)OCCCCCCCCCCCC)CCN(CC)CC [Example 32, didodecyl 8-(2-(diethylamino)ethyl)-3,13-bis(2-(dodecyloxy)-2-oxoethyl)-4,12-dioxo-5,11-dioxa-3,8,13-triazapentadecanedioate] | 203 | – | 60 | – | – | –
